The record followed here is publication PMC8286840, “Identifying SARS-CoV-2 antiviral compounds by screening for small molecule inhibitors of Nsp3 papain-like protease” (Biochemical Journal, 2021).

Structures can show the parent of a compound that is named as a salt. Where two headings read alike, the source gives them in different places.

For test [1], the target named is T1, SARS-CoV-2 PLpro (nsp3 1564–1878) (Severe acute respiratory syndrome coronavirus 2, UniProt P0DTD1). In words: biochemical. Also on record: FRET-quenched peptide (Pro3) cleavage by PLpro, 10 min pre-incubation, slope over 20 min, normalised to no-compound control. As to conditions: high concentration screen, read-out: % of control remaining.
The target in test [2] is T1, SARS-CoV-2 PLpro (nsp3 1564–1878). The test can be described thus: biochemical. On the set-up: FRET-quenched peptide (Pro3) cleavage by PLpro, 10 min pre-incubation, slope over 20 min, normalised to no-compound control. As to conditions: low concentration screen, read-out: % of control remaining.

On to `Nc1ccccc1NC(=O)CCCCCCC(=O)Nc1ccccc1` [BML-210], for which the remaining activity at 3.75 µM in test [1] (Well no.=5799) was found to be 104%. For the same compound, in test [2] (Well no.=5799), the remaining activity at 1.25 µM was determined as 105%.

Turning to `CCOc1ccn(-c2ccc(F)cc2)c(=O)c1C(=O)Nc1ccc(Oc2ccnc(N)c2Cl)c(F)c1` [BMS 777607], the remaining activity at 3.75 µM in test [1] (Well no.=5297) was 90.4%. Further, the remaining activity at 1.25 µM in test [2] (Well no.=5297) amounted to 94.1%.

Turning to `Nc1nccc(Oc2ccc(NC(=O)c3c[nH]cc(-c4ccc(F)cc4)c3=O)cc2F)c1Cl` [BMS 794833], in test [1] (Well no.=5150), the remaining activity at 3.75 µM was 96.4%. In addition, in test [2] (Well no.=5150), the remaining activity at 1.25 µM amounted to 100%.

Take `COc1cc(OCc2cccc(-c3ccccc3)c2C)cc(OC)c1CN1CCCC[C@H]1C(=O)O` [BMS-1]: the results for the remaining activity at 3.75 µM in test [1] (Well no.=7780) and in test [1] (Well no.=8163) were 96.2% and 100%, respectively. In addition, the remaining activity at 1.25 µM was 98.8% in test [2] (Well no.=7780) and 105% in test [2] (Well no.=8163).

For the compound `O=C(Nc1ncc(-c2cc(C(F)F)nn2-c2c(Cl)cccc2Cl)s1)C1CC1` [BMS-3], in test [1] (Well no.=3039), the remaining activity at 3.75 µM was 96.4%. Besides, the remaining activity at 1.25 µM in test [2] (Well no.=3039) is 95.8%.

Regarding `CC(C)C(=O)Nc1ncc(-c2cc(C(F)F)nn2-c2c(Cl)cccc2Cl)s1` [BMS-5], in test [1] (Well no.=2705), the remaining activity at 3.75 µM worked out at 96.9%. Also, the remaining activity at 1.25 µM in test [2] (Well no.=2705) turned out to be 100%.

With `COc1nc(OCc2cccc(-c3ccccc3)c2C)ccc1CNCCNC(C)=O` [BMS-202], the remaining activity at 3.75 µM in test [1] (Well no.=8469) is 95.5%; in test [1] (Well no.=8694), 93.7%. Also, the remaining activity at 1.25 µM in test [2] (Well no.=8469) amounted to 100%; in test [2] (Well no.=8694), 96.5%.

With `Cc1c(COc2cc(OCc3cccc(C#N)c3)c(CN3C[C@H](O)C[C@@H]3C(=O)O)cc2Cl)cccc1-c1ccc2c(c1)OCCO2` [BMS-1166], the remaining activity at 3.75 µM in test [1] (Well no.=8310) amounted to 96.4%. The remaining activity at 1.25 µM in test [2] (Well no.=8310) was found to be 96.7%.

As to `CC1(C)CC=C(c2cnc3ccccc3c2)c2cc(C(=O)Nc3ccc(C(=O)O)cc3)ccc21` [BMS-195614], the remaining activity at 3.75 µM in test [1] (Well no.=5458) worked out at 103%. The remaining activity at 1.25 µM in test [2] (Well no.=5458) is 98.2%.

With `CCCCOc1c(C(=O)c2c(F)cc(C)cc2F)c[nH]c2nncc1-2` [BMS-265246], the remaining activity at 3.75 µM in test [1] (Well no.=5010) is 96.6%. The remaining activity at 1.25 µM in test [2] (Well no.=5010) came out at 95.8%.

In the case of `COc1ccnc2[nH]cc(C(=O)C(=O)N3CCN(C(=O)c4ccccc4)C[C@H]3C)c12` [BMS-378806], the remaining activity at 3.75 µM in test [1] (Well no.=8420) amounted to 94.2%. Besides, the remaining activity at 1.25 µM in test [2] (Well no.=8420) worked out at 96.7%.

Regarding `Cn1c(N2CCCCS2(=O)=O)nc(C(=O)NCc2ccc(F)cc2)c(O)c1=O` [BMS-707035], the remaining activity at 3.75 µM in test [1] (Well no.=5193) was 106%. Besides, in test [2] (Well no.=5193), the remaining activity at 1.25 µM is 105%.

`CC(=O)N[C@@H]1C[C@H](NC(C)(C)C)CC[C@@H]1N1CC[C@H](Nc2ncnc3cc(C(C)(C)C)nn23)C1=O` [BMS-813160]: the remaining activity at 3.75 µM in test [1] (Well no.=8217) was found to be 100%. In test [2] (Well no.=8217), the remaining activity at 1.25 µM is 103%.

Regarding `COc1ccccc1N1CCN(CCN2C(=O)CC3(CCCC3)CC2=O)CC1` [BMY 7378 dihydrochloride], in test [1] (Well no.=229), the remaining activity at 3.75 µM is 100%. For the same compound, the remaining activity at 1.25 µM in test [2] (Well no.=229) came to 98.4%.

For the compound `COc1ccccc1N1CCN(CCN2C(=O)CC3(CCCC3)CC2=O)CC1` [BMY 7378], the remaining activity at 3.75 µM in test [1] (Well no.=5346) was 88.7%. Moreover, the remaining activity at 1.25 µM in test [2] (Well no.=5346) came out at 91.4%.

On to `CCCc1cc(=O)oc2c(C(=O)N3CCCc4ccccc43)c(OC)cc(OC)c12` [BNS-22], for which the remaining activity at 3.75 µM in test [1] (Well no.=5907) amounted to 98.7%. Further, the remaining activity at 1.25 µM in test [2] (Well no.=5907) was found to be 101%.

On to `COC(=O)CC(NC(=O)OC(C)(C)C)C(=O)CF` [BOC-D-FMK], for which the remaining activity at 3.75 µM came out at 93.9% in test [1] (Well no.=6868) and 95.4% in test [1] (Well no.=7644). Also, the remaining activity at 1.25 µM in test [2] (Well no.=6868) came to 95.7%; in test [2] (Well no.=7644), 101%.

Take `COc1ccccc1N1CCN(CCCCNC(=O)c2ccc3ccccc3c2)CC1` [BP897]: the remaining activity at 3.75 µM in test [1] (Well no.=6013) came to 98.6%. For the same compound, the remaining activity at 1.25 µM in test [2] (Well no.=6013) came to 106%.

Consider `COc1ccccc1N1CCN(CCCCNC(=O)c2ccc3ccccc3c2)CC1` [BP 897], for which the remaining activity at 3.75 µM in test [1] (Well no.=35) is 93.4%. The remaining activity at 1.25 µM in test [2] (Well no.=35) worked out at 95.8%.

Turning to `Cn1cnc2cc3c(Nc4cccc(Br)c4)ncnc3cc21` [BPIQ-I], the remaining activity at 3.75 µM in test [1] (Well no.=2357) was found to be 99%. In addition, the remaining activity at 1.25 µM in test [2] (Well no.=2357) was 101%.

Regarding `CCCC[C@@H](NC(=O)[C@@H](Cc1cn(C(=O)OC)c2ccccc12)NC(=O)[C@H](CC(C)(C)C)NC(=O)N1[C@H](C)CCC[C@@H]1C)C(=O)O` [BQ-788 (sodium salt)], in test [1] (Well no.=8560), the remaining activity at 3.75 µM came out at 101%. Further, in test [2] (Well no.=8560), the remaining activity at 1.25 µM worked out at 108%.

With `Cc1nn(C)c2c1C(c1ccc(C(F)(F)F)cc1)C(C#N)=C(N)O2` (stereo not shown) [BQU57], the remaining activity at 3.75 µM in test [1] (Well no.=7957) stood at 94.7%. In addition, in test [2] (Well no.=7957), the remaining activity at 1.25 µM turned out to be 103%.

Regarding `COC(=O)c1ccc2c(c1)nc(NC(=O)c1ccccc1)n2CCCc1ccccc1` [BRD4770], the remaining activity at 3.75 µM in test [1] (Well no.=5781) was 96.3%. In addition, in test [2] (Well no.=5781), the remaining activity at 1.25 µM turned out to be 97%.

For `COc1ccc(Nc2nc(N)nc(CN3CCCCC3)n2)cc1` [BRD32048], in test [1] (Well no.=5572), the remaining activity at 3.75 µM is 98.9%. The remaining activity at 1.25 µM in test [2] (Well no.=5572) came out at 91.7%.

Turning to `O=C(NO)c1cccc(C(=O)NCCc2ccccc2)c1` [BRD73954], the remaining activity at 3.75 µM in test [1] (Well no.=5588) was 92.7%. Besides, the remaining activity at 1.25 µM in test [2] (Well no.=5588) worked out at 99.7%.

For `OC(CN1CCN(c2cccc(Cl)c2)CC1)C(c1ccccc1)c1ccccc1` (stereo not shown) [BRL 15572], the remaining activity at 3.75 µM in test [1] (Well no.=131) came to 98.1%. In test [2] (Well no.=131), the remaining activity at 1.25 µM is 95.9%.

`CN1CCC(c2c[nH]c3ccc(O)cc23)CC1` [BRL 54443 maleate]: the remaining activity at 3.75 µM in test [1] (Well no.=231) came to 101%. For the same compound, the remaining activity at 1.25 µM in test [2] (Well no.=231) came out at 101%.

`CN1CCC(c2c[nH]c3ccc(O)cc23)CC1` [BRL 54443]: the remaining activity at 3.75 µM in test [1] (Well no.=5171) was found to be 89.8%; in test [1] (Well no.=6945), 93.5%. The remaining activity at 1.25 µM in test [2] (Well no.=5171) amounted to 98%; in test [2] (Well no.=6945), 103%.

For `OC(CN1CCN(c2cccc(Cl)c2)CC1)C(c1ccccc1)c1ccccc1` (stereo not shown) [BRL-15572], in test [1] (Well no.=5336), the remaining activity at 3.75 µM turned out to be 94.2%. For the same compound, the remaining activity at 1.25 µM in test [2] (Well no.=5336) was determined as 94.9%.

Take `O=C(Oc1cc(S(=O)(=O)c2ccccc2)ccc1[N+](=O)[O-])c1ccc(Cl)cc1` [BTB06584]: the remaining activity at 3.75 µM in test [1] (Well no.=5965) amounted to 102%. In test [2] (Well no.=5965), the remaining activity at 1.25 µM was determined as 102%.

As to `c1ccc2sc(C3(N4CCCCC4)CCCCC3)cc2c1` [BTCP hydrochloride], in test [1] (Well no.=325), the remaining activity at 3.75 µM was found to be 96.6%. Further, the remaining activity at 1.25 µM in test [2] (Well no.=325) came out at 101%.
